In patent US10669252B2, “Benzazepine derivative, preparation method, pharmaceutical composition and use thereof” (SHANGHAI DE NOVO PHARMATECH CO., LTD., priority 2016, dated 2020):

What was measured:
TLR8 = target: T1, TLR8 (Homo sapiens, UniProt Q9NR97); assay: TLR8 cell based assay (HEK-BLUE-hTLR8, SEAP reporter linked to NF-κB activation); conditions: HEK-BLUE-hTLR8 cells
T1 construct: host or cells: HEK293 (HEK-BLUE-hTLR8)
T1 sequence (Q9NR97 27-1041): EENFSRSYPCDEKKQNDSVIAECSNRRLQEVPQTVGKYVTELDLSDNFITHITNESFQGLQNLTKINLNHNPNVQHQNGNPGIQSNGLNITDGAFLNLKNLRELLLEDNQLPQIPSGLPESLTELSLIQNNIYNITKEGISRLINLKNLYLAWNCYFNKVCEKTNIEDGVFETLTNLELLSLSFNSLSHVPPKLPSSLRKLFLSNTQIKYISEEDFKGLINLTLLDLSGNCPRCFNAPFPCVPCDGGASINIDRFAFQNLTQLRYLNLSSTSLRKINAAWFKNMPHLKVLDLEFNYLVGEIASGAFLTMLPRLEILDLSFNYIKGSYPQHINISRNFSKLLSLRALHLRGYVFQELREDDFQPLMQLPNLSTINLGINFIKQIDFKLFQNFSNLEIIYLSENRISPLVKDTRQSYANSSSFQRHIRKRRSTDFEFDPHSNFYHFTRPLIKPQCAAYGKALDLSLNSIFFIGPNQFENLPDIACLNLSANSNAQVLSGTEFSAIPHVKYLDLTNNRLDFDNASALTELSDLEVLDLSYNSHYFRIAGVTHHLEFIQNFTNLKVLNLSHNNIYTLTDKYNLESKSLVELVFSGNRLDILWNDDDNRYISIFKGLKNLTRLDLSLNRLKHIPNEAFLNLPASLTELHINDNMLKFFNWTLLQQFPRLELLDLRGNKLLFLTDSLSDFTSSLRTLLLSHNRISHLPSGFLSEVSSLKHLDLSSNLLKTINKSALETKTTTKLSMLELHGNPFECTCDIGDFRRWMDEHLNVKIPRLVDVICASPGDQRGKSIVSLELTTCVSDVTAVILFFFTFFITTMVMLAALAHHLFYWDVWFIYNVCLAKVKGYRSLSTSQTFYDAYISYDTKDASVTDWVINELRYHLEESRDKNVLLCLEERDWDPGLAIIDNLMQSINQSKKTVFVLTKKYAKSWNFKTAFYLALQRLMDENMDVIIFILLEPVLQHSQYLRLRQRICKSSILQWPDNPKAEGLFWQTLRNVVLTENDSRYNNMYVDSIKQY
Procedure: (§1) In this assay, the bioactivity of compound of formula Iw as measured using a cell based assay. The assay was performed in human embryonic kidney cells (HEK293) expressing TLR8 or other TLR family members such as TLR4, TLR7 and TLR9 (for selectivity screens). The activity of specific TLR agonists was assessed using the secretory embryonic alkaline phosphatase (SEAP) reporter gene that is linked to NF-κB activation in response to TLR stimulation. The SEAP activity was measured using the Quanti-Blue substrate (InvivoGen) after TLR agonist treatment.
(§2) The detailed experimental method is as follow:
HEK-BLUE-hTLR8 cell line was purchased from InvivoGen. The cells were cultured in Dulbecco's Modified Eagle's Media containing 4.5 g/L […] (Sigma-Aldrich) and 10% FBS. The cells were cultured at 37° C., 95% humidity and 5% CO2.
Test concentrations of the compounds ranged from 0.5 nM to 15 μM with 10 points. A known TLR8 agonist was added as positive control and 1 μl of DMSO was added as negative control.
(§3) The cells were prepared as follows: The cells were removed from the incubator and growth medium was discarded. The cells were gently rinsed with pre-warmed 10 ml PBS for a T-150 flask. 12 ml pre-warmed growth medium was added, and the cells were detached by tapping the flask. Cell clumps were dissociated by gently pipetting up and down. The cells were counted. Single cell suspension was prepared at 200,000 cells per ml in growth medium and 200 μl of the cell suspension (40,000 cells per well) were immediately added to each well of the plate. The final DMSO concentration of each well was 0.5%.
The cells were cultured and treated with the compounds at 37° C., 5% CO2 for 24 h.
(§4) 20 μL of the supernatant of each well were added to 180 μL of QUANTI-Blue, and the plates were incubated at 37° C. for 1.5 hour. Optical density was measured using a spectrophotometer at 650 nm (OD data). Activivation was calculated by using the equation below: Activivation %=(Compound OD mean value−DMSO OD mean value)/(positive control OD mean value−DMSO OD mean value)×100
(§5) The data were analyzed using the GraphPad to get EC50 values and fitting dose response curves of the compounds.

TLR7 = target: T2, TLR7 (Homo sapiens, UniProt Q9NYK1); assay: TLR7 cell based assay (HEK-BLUE-hTLR7, SEAP reporter linked to NF-κB activation); conditions: HEK-BLUE-hTLR7 cells, 24 hours treatment, SEAP/QUANTI-Blue readout
T2 construct: host or cells: HEK293 (HEK-BLUE-hTLR7)
T2 sequence (Q9NYK1 27-1049): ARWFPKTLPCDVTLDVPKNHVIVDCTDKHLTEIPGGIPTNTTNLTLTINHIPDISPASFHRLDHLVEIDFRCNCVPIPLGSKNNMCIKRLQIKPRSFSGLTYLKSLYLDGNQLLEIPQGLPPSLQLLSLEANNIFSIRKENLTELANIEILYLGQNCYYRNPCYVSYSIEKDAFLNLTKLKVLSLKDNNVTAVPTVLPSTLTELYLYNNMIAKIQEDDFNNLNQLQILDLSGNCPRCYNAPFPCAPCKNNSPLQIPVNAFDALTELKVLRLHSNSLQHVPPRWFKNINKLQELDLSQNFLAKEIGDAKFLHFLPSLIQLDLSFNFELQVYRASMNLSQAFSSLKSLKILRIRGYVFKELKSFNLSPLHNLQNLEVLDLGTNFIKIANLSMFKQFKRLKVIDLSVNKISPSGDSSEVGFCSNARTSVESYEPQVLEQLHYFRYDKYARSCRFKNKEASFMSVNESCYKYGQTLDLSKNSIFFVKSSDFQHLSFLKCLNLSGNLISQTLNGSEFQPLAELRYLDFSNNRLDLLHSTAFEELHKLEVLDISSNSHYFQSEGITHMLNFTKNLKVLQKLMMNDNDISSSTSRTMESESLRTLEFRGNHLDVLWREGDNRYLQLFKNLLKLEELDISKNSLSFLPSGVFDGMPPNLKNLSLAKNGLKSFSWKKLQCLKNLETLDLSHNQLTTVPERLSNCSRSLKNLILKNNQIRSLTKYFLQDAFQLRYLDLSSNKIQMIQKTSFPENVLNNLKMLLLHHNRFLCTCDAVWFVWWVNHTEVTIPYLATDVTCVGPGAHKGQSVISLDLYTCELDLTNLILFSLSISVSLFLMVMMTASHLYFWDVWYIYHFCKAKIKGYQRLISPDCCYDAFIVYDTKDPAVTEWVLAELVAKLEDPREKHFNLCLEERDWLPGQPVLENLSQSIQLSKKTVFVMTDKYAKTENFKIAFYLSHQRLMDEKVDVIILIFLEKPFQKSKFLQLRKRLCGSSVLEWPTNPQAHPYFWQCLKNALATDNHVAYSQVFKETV
Procedure: as §1, with “(I) was” for “Iw as”, “TLR7” for “TLR8”, “TLR4,” for “TLR4, TLR7”
as §2
HEK-BLUE-hTLR7 cell line was purchased from InvivoGen. The cells were cultured in Dulbecco's Modified Eagle's Media containing 4.5 g/L […] (Sigma-Aldrich) and 10% FBS. The cells were cultured at 37° C., 95% humidity and 5% CO2.
[…] A known TLR8 agonist was added as positive control and 1 μl of DMSO was added as negative control.
as §3, with “follows.” for “follows:”
The cells were cultured and treated with the compounds at 37° C., 5% CO2 for 24 hours.
as §4, §5

[1] = 24 h treatment, SEAP/QUANTI-Blue readout

Row | SMILES | EC50 (TLR8; [1]) [nM] | EC50 (TLR7) [nM] | EC50 (TLR8; bound stated) [nM]
1 | CCCN(CCC)C(=O)C1=Cc2ccc(-c3ccc4c(=O)n(CCO)c(C)cc4c3)cc2N=C(N)C1 [Compound 1-2-8] | < 100 | > 50000 | –
2 | CCCN(CCC)C(=O)C1=Cc2ccc(-c3ccc4c(=O)n(CC(C)(C)O)c(C)cc4c3)cc2N=C(N)C1 [Compound 1-2-9] | < 100 | > 50000 | –
3 | CCCN(CCC)C(=O)C1=Cc2ccc(-c3ccc4c(=O)n(Cc5ccccc5)ncc4c3)cc2N=C(N)C1 [Compound 1-8-19] | 100 to 1000 | – | –
4 | CCCN(CCC)C(=O)C1=Cc2ccc(-c3ccc4c(=O)n(Cc5ccccn5)ncc4c3)cc2N=C(N)C1 [Compound 1-8-20] | < 100 | – | –
5 | CCCN(CCC)C(=O)C1=Cc2ccc(-c3ccc4c(=O)n(Cc5nc(OC)cc(OC)n5)ncc4c3)cc2N=C(N)C1 [Compound 1-8-21] | < 100 | – | –
6 | CCCN(CCC)C(=O)C1=Cc2ccc(-c3ccc4c(=O)n(CC(N)=O)c(=O)n(C)c4c3)cc2N=C(N)C1 [Compound 1-9-3] | 100 to 1000 | – | –
7 | CCCN(CCC)C(=O)C1=Cc2ccc(-c3ccc4c(=O)n(CC(C)(C)O)c(=O)n(C)c4c3)cc2N=C(N)C1 [Compound 1-9-5] | 100 to 1000 | – | –
8 | CCCN(CCC)C(=O)C1=Cc2ccc(-c3ccc4c(=O)n(CCNS(C)(=O)=O)c(=O)n(C)c4c3)cc2N=C(N)C1 [Compound 1-9-6] | < 100 | – | –
9 | CCCN(CCC)C(=O)C1=Cc2c(F)cc(-c3ccc4c(=O)n(CCS(C)(=O)=O)ncc4c3)cc2N=C(N)C1 [Compound 1-10-2] | < 100 | – | –
10 | CCCN(CCC)C(=O)C1=Cc2c(F)cc(-c3ccc4c(=O)n(CC(=O)NC)ccc4c3)cc2N=C(N)C1 [Compound 1-10-3] | < 100 | – | –
11 | CCCN(CCC)C(=O)C1=Cc2c(F)cc(-c3ccc4c(=O)n(CCS(C)(=O)=O)ccc4c3)cc2N=C(N)C1 [Compound 1-10-4] | < 100 | – | –
12 | CCCN(CCC)C(=O)C1=Cc2c(F)cc(-c3ccc4c(=O)n(CC(=O)NC)c(=O)n(C)c4c3)cc2N=C(N)C1 [Compound 1-10-5] | < 100 | – | –
13 | CCCN(CCC)C(=O)C1=Cc2c(F)cc(-c3ccc4c(=O)n(CC(=O)NC)ncc4c3)cc2N=C(N)C1 [Compound 1-10-6] | < 100 | – | –
14 | CCCN(CCC)C(=O)C1=Cc2c(F)cc(-c3ccc4c(=O)n(CC(=O)NCC)ccc4c3)cc2N=C(N)C1 [Compound 1-10-7] | < 100 | – | –
15 | CCCN(CCC)C(=O)C1=Cc2c(F)cc(-c3ccc4c(=O)n(CC(=O)NC)cnc4c3)cc2N=C(N)C1 [Compound 1-10-8] | < 100 | – | –
16 | CCCN(CCC)C(=O)C1=Cc2c(F)cc(-c3ccc4c(=O)n(CCS(C)(=O)=O)c(=O)n(C)c4c3)cc2N=C(N)C1 [Compound 1-10-10] | 100 to 1000 | – | –
17 | CCCN(CCO)C(=O)C1=Cc2ccc(-c3ccc4c(=O)n(CC(N)=O)ccc4c3)cc2N=C(N)C1 [Compound 1-12-1] | 100 to 1000 | – | –
18 | CCCN(CCC)C(=O)C1=Cc2ccc(-c3ccc4c(=S)n(Cc5ncccn5)ncc4c3)cc2N=C(N)C1 [Compound 1-14-1] | < 100 | – | < 10
19 | CCCN(CCC)C(=O)C1=Cc2ccc(-c3ccc4c(=S)n(CCS(C)(=O)=O)ncc4c3)cc2N=C(N)C1 [Compound 1-14-2] | < 100 | – | < 10
20 | CCCN(CCC)C(=O)C1=Cc2ccc(-c3ccc4c(=S)n(Cc5cnccn5)ccc4c3)cc2N=C(N)C1 [Compound 1-14-5] | < 100 | – | –
21 | CCCN(CCC)C(=O)C1=Cc2ccc(-c3ccc4c(=S)n(Cc5cnccn5)ncc4c3)cc2N=C(N)C1 [Compound 1-14-6] | < 100 | – | –
22 | CCCN(CCC)C(=O)C1=Cc2c(cc(-c3ccc4c(=O)n(CCS(C)(=O)=O)ncc4c3)cc2OC)N=C(N)C1 [Compound 2-2-1] | 100 to 1000 | – | –
23 | CCCN(CCC)C(=O)C1=Cc2c(Cl)cc(-c3ccc4c(=O)n(CCS(C)(=O)=O)ncc4c3)cc2N=C(N)C1 [Compound 2-2-3] | 100 to 1000 | – | –
24 | [2H]c1cc(-c2ccc3c(=O)n(CCS(C)(=O)=O)ncc3c2)cc2c1C=C(C(=O)N(CCC)CCC)CC(N)=N2 [Compound 2-2-4] | < 100 | – | < 10
25 | CCCN(CCC)C(=O)C1=Cc2c(Cl)cc(-c3ccc4c(=O)n(Cc5ncccn5)ncc4c3)cc2N=C(N)C1 [Compound 2-3-1] | < 100 | – | –
26 | CCCN(CCC)C(=O)C1=Cc2c(C)cc(-c3ccc4c(=O)n(Cc5ncccn5)ncc4c3)cc2N=C(N)C1 [Compound 2-3-2] | < 100 | – | < 10
27 | [2H]c1cc(-c2ccc3c(=O)n(Cc4ncccn4)ncc3c2)cc2c1C=C(C(=O)N(CCC)CCC)CC(N)=N2 [Compound 2-3-3] | < 100 | – | < 10
